Laboratory results published in ChEMBL document CHEMBL1201862, “PubChem BioAssay data set” (2004).
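Growth conditions: 96-well plates. Treatment: test compound, 48 hours, 5 concentrations. Analysis: linear interpolation between bracketing concentrations; unreached endpoints set to highest concentration. Here, GI50 denotes the concentration required for 50% inhibition of growth.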 The source made the active and inactive calls. No stated cut-off is given here; in the data, active = GI50 up to about 1.1 µM and inactive = higher.

What was measured:
Assay in all cases: growth of human tumour cells (NCI), 48 h
RPMI-8226 = system: RPMI-8226
HOP-92 = system: HOP-92
TK-10 = system: TK-10
SW-620 = system: SW-620
HOP-62 = system: HOP-62
SK-MEL-28 = system: SK-MEL-28
ACHN = system: ACHN
SF-268 = system: SF-268
MOLT-4 = system: MOLT-4
SR = system: SR
SN12C = system: SN12C
IGROV-1 = system: IGROV-1
786-0 = system: 786-0
SF-539 = system: SF-539
UACC-257 = system: UACC-257
UACC-62 = system: UACC-62
RXF 393 = system: RXF 393
CAKI-1 = system: CAKI-1
HCC 2998 = system: HCC 2998

Measured: GI50

Cc1cc2ncn(CC(=O)O)c2cc1C
inactive: RPMI-8226 > 100 µM | HOP-92 > 100 µM | TK-10 > 100 µM | SW-620 > 100 µM | HOP-62 > 100 µM | SK-MEL-28 > 100 µM | ACHN > 100 µM | SF-268 > 100 µM | MOLT-4 > 100 µM | SR > 100 µM | SN12C > 100 µM | IGROV-1 > 100 µM | 786-0 > 100 µM | SF-539 > 100 µM | UACC-257 > 100 µM | UACC-62 > 100 µM | RXF 393 > 100 µM | CAKI-1 > 100 µM

O=C1C=C/C(=N\c2ccc3c(c2)C(Br)c2ccccc2-3)O1 (centres undefined)
inactive: RPMI-8226 68.2 µM | TK-10 > 100 µM | SW-620 27.6 µM | HCC 2998 > 100 µM | HOP-62 > 100 µM | SK-MEL-28 > 100 µM | ACHN > 100 µM | SF-268 > 100 µM | MOLT-4 26.8 µM | SR 20.2 µM | SN12C 21.5 µM | IGROV-1 > 100 µM | 786-0 29 µM | SF-539 > 100 µM | UACC-257 > 100 µM | UACC-62 61.5 µM | RXF 393 > 100 µM

CC1(C)Cc2cc(C(=O)O)c3c(c2C1=O)COCC3
inactive: RPMI-8226 > 100 µM | TK-10 > 10 µM | SW-620 > 100 µM | HCC 2998 > 100 µM | HOP-62 > 100 µM | ACHN > 100 µM | SF-268 > 100 µM | MOLT-4 > 100 µM | SR > 100 µM | SN12C > 100 µM | IGROV-1 > 100 µM | 786-0 > 100 µM | SF-539 > 100 µM | UACC-257 > 100 µM | UACC-62 > 100 µM | RXF 393 > 100 µM | CAKI-1 > 100 µM

NCP(=O)(O)OCC(=O)O
inactive: HOP-92 > 100 µM | TK-10 > 100 µM | SW-620 > 100 µM | HOP-62 > 100 µM | SK-MEL-28 > 100 µM | ACHN > 100 µM | SF-268 > 100 µM | MOLT-4 > 100 µM | SR > 100 µM | SN12C > 100 µM | IGROV-1 > 100 µM | 786-0 > 100 µM | SF-539 > 100 µM | UACC-257 > 100 µM | UACC-62 > 100 µM | RXF 393 > 100 µM | CAKI-1 > 100 µM

CC(C)(C)C1CCC2c3c([nH]c4ccccc34)C3C(=O)N(c4ccccc4)C(=O)C3C2C1 (centres undefined)
inactive: RPMI-8226 7.78 µM | TK-10 3.71 µM | SW-620 8.34 µM | HCC 2998 9.53 µM | SK-MEL-28 4.97 µM | ACHN 4.94 µM | SF-268 13.6 µM | MOLT-4 3.31 µM | SR 6.27 µM | SN12C 5.3 µM | IGROV-1 11.1 µM | 786-0 7.14 µM | SF-539 8.97 µM | UACC-62 20.9 µM | RXF 393 3.81 µM

N/C(=N\O)N/N=C/c1cccs1
inactive: HOP-92 > 100 µM | TK-10 > 100 µM | SW-620 > 100 µM | HCC 2998 33.4 µM | HOP-62 24.7 µM | SK-MEL-28 > 100 µM | ACHN 42.3 µM | SF-268 17.2 µM | SR 67.3 µM | SN12C 59.8 µM | IGROV-1 35.4 µM | 786-0 > 100 µM | SF-539 > 100 µM | UACC-257 > 100 µM | UACC-62 15.8 µM | RXF 393 > 100 µM | CAKI-1 34.4 µM

C[C@@]1(CBr)C[C@@](C)(/C=C/Cl)[C@@H](Cl)C[C@H]1Cl
inactive: HOP-92 13.6 µM | TK-10 14.7 µM | SW-620 13.9 µM | HCC 2998 16.1 µM | HOP-62 14.2 µM | SK-MEL-28 17.5 µM | ACHN 12.7 µM | SF-268 15.9 µM | MOLT-4 4.03 µM | SR 1.9 µM | SN12C 11.7 µM | IGROV-1 14.8 µM | 786-0 14 µM | SF-539 14.6 µM | UACC-257 11.4 µM | UACC-62 15.5 µM | RXF 393 13.8 µM | CAKI-1 17.3 µM

Cc1nnc(N/N=C2\C(=O)Nc3ccccc32)n1N
inactive: RPMI-8226 > 100 µM | TK-10 > 100 µM | SW-620 > 100 µM | HCC 2998 > 100 µM | HOP-62 > 100 µM | SK-MEL-28 > 100 µM | ACHN > 100 µM | SF-268 > 100 µM | MOLT-4 > 100 µM | SR > 100 µM | SN12C > 100 µM | IGROV-1 > 100 µM | 786-0 > 100 µM | SF-539 > 100 µM | UACC-257 > 100 µM | UACC-62 > 100 µM | RXF 393 > 100 µM | CAKI-1 > 100 µM

COc1ccccc1/C=C1\C(=O)N(C(=O)c2ccc(NC(C)=O)cc2)N=C1C
inactive: RPMI-8226 > 100 µM | TK-10 > 100 µM | SW-620 > 100 µM | HCC 2998 > 100 µM | HOP-62 > 100 µM | SK-MEL-28 > 100 µM | ACHN > 100 µM | SF-268 > 100 µM | MOLT-4 > 100 µM | SR > 100 µM | SN12C > 100 µM | 786-0 > 100 µM | SF-539 > 100 µM | UACC-257 > 100 µM | CAKI-1 > 100 µM

Cc1cc(Br)cc(C)c1NC(=O)C(=O)C(C(=O)c1ccc(Cl)c(Cl)c1)C1OC(=O)c2ccccc21 (centres undefined)
inactive: RPMI-8226 42.2 µM | TK-10 70.8 µM | SW-620 > 100 µM | HCC 2998 > 100 µM | HOP-62 43.6 µM | ACHN 28.5 µM | SF-268 39.8 µM | MOLT-4 12.6 µM | SR 7.71 µM | SN12C 79.3 µM | IGROV-1 91.2 µM | 786-0 86.1 µM | SF-539 25.2 µM | UACC-257 36.7 µM | UACC-62 59.8 µM | RXF 393 > 100 µM | CAKI-1 34.8 µM

O=c1oc2cc(O)ccc2c2[nH]c3cc(O)ccc3c12
inactive: RPMI-8226 78 µM | HOP-92 32.1 µM | TK-10 36.3 µM | SW-620 34 µM | HCC 2998 22.5 µM | HOP-62 24.3 µM | SK-MEL-28 31.7 µM | ACHN 22.7 µM | SF-268 22.8 µM | MOLT-4 34 µM | SR 21.2 µM | SN12C 33.3 µM | IGROV-1 23.1 µM | 786-0 30.8 µM | SF-539 18.9 µM | UACC-257 35.2 µM | UACC-62 15.5 µM | RXF 393 20.6 µM

C#CC1(O)CCC2[C@@H]3CCc4cc(Oc5nc(F)nc(-c6c7ccccc7c(SCC)n6CCC)n5)ccc4C3CC[C@@]21C (some centres undefined)
inactive: RPMI-8226 57.3 µM | HOP-92 > 100 µM | TK-10 > 100 µM | SW-620 > 100 µM | HCC 2998 > 100 µM | HOP-62 > 100 µM | SK-MEL-28 50.7 µM | ACHN > 100 µM | SF-268 57.5 µM | MOLT-4 28.7 µM | SR 34.7 µM | IGROV-1 94.6 µM | 786-0 > 100 µM | SF-539 58.9 µM | UACC-257 > 100 µM | UACC-62 89.7 µM | RXF 393 21.6 µM
